Data: ChEMBL document CHEMBL1201862, “PubChem BioAssay data set” (2004)
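Cells were grown in 96-well plates and exposed to each compound for 48 hours at five concentrations; endpoints were interpolated linearly between bracketing concentrations, or set to the highest concentration if not reached. Here, GI50 denotes the concentration required for 50% inhibition of growth.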 Active and inactive are the calls of the source. Cut-off read from the data, not from the text of the source: active = GI50 up to about 1.1 µM and inactive = higher.

Experiments:
Test in all cases: DTP human tumour cell line panel, 48 h
HT-29 = test system: HT-29
OVCAR-3 = test system: OVCAR-3
MOLT-4 = test system: MOLT-4
A549 = test system: A549
OVCAR-4 = test system: OVCAR-4
786-0 = test system: 786-0
KM12 = test system: KM12
SF-295 = test system: SF-295
SR = test system: SR
OVCAR-5 = test system: OVCAR-5
CAKI-1 = test system: CAKI-1
U-251 = test system: U-251
Malme-3M = test system: Malme-3M
SNB-19 = test system: SNB-19
SF-268 = test system: SF-268
SNB-75 = test system: SNB-75
SK-OV-3 = test system: SK-OV-3
DU-145 = test system: DU-145
NCI/ADR-RES = test system: NCI/ADR-RES
MDA-MB-435 = test system: MDA-MB-435

Row | Compound | GI50 (HT-29) | GI50 (OVCAR-3) | GI50 (MOLT-4) | GI50 (A549) | GI50 (OVCAR-4) | GI50 (786-0) | GI50 (KM12) | GI50 (SF-295) | GI50 (SR) | GI50 (OVCAR-5) | GI50 (CAKI-1) | GI50 (U-251) | GI50 (Malme-3M) | GI50 (SNB-19) | GI50 (SF-268) | GI50 (SNB-75) | GI50 (SK-OV-3) | GI50 (DU-145) | GI50 (NCI/ADR-RES) | GI50 (MDA-MB-435)
1 | Nc1nc(-c2ccccc2)cc(-c2ccccc2O)n1 | 33.4 µM (inactive) | 33.5 µM (inactive) | 25.1 µM (inactive) | 34.6 µM (inactive) | 51.6 µM (inactive) | 48.6 µM (inactive) | 23.9 µM (inactive) | 71.6 µM (inactive) | 30.3 µM (inactive) | 32.8 µM (inactive) | 34.1 µM (inactive) | 45.2 µM (inactive) | > 100 µM (inactive) | 68.9 µM (inactive) | 24 µM (inactive) | 36.6 µM (inactive) | 85.9 µM (inactive) |  |  | 
2 | CC1=CC(=O)/C(=C/N2C(=O)CNC2=S)C(=O)O1 | > 100 µM (inactive) | > 100 µM (inactive) | > 100 µM (inactive) | > 100 µM (inactive) | > 100 µM (inactive) | > 100 µM (inactive) | > 100 µM (inactive) | > 100 µM (inactive) |  | > 100 µM (inactive) | > 100 µM (inactive) | > 100 µM (inactive) |  | > 100 µM (inactive) |  | > 100 µM (inactive) | > 100 µM (inactive) | > 100 µM (inactive) | > 100 µM (inactive) | > 100 µM (inactive)
3 | COc1cccc(NC(=O)CC(=O)N2NC(C)C(/N=N/c3cccc(C(=O)O)c3)C2=O)c1 (stereo not drawn) | > 100 µM (inactive) | > 100 µM (inactive) | > 100 µM (inactive) | > 100 µM (inactive) | > 100 µM (inactive) | > 100 µM (inactive) | > 100 µM (inactive) | > 100 µM (inactive) | > 100 µM (inactive) | > 100 µM (inactive) | > 100 µM (inactive) | > 100 µM (inactive) | > 100 µM (inactive) | > 100 µM (inactive) | > 100 µM (inactive) | > 100 µM (inactive) | > 100 µM (inactive) |  |  | 
4 | CCOC(=O)c1c(C)n(C)c2c1cc(O)c1[nH]c3c(c12)CCCC3 | 18.8 µM (inactive) | 5.62 µM (inactive) | 16.9 µM (inactive) | 18 µM (inactive) | 10.8 µM (inactive) | 15.6 µM (inactive) | 15 µM (inactive) | 39.1 µM (inactive) |  | 28.8 µM (inactive) | 28.4 µM (inactive) | 18.2 µM (inactive) | 7.66 µM (inactive) | 38.4 µM (inactive) | 2 µM (inactive) |  | 29.4 µM (inactive) | 22.8 µM (inactive) | 17.9 µM (inactive) | 13.4 µM (inactive)
5 | Cc1cc(S(=O)(=O)Nc2nc(N)n[nH]2)c(SCC(=O)O)cc1Cl | > 10 µM (inactive) | > 10 µM (inactive) | > 10 µM (inactive) | > 10 µM (inactive) | > 10 µM (inactive) | > 10 µM (inactive) | > 10 µM (inactive) | > 10 µM (inactive) | > 10 µM (inactive) | > 10 µM (inactive) | > 10 µM (inactive) | > 10 µM (inactive) | > 10 µM (inactive) | > 10 µM (inactive) | > 10 µM (inactive) | > 10 µM (inactive) | > 10 µM (inactive) | > 10 µM (inactive) | > 10 µM (inactive) | 
6 | Nc1ccc2ncc(NCc3ccc(F)cc3)nc2c1 | > 100 µM (inactive) | 38.9 µM (inactive) | 41.9 µM (inactive) | > 100 µM (inactive) | 92.3 µM (inactive) | > 100 µM (inactive) | > 100 µM (inactive) | 56.2 µM (inactive) | 70 µM (inactive) | > 100 µM (inactive) | 71.9 µM (inactive) | > 100 µM (inactive) | > 100 µM (inactive) | > 100 µM (inactive) | 48.2 µM (inactive) | 25.4 µM (inactive) | 85.9 µM (inactive) |  |  | 
7 | O=CC1C(=O)Nc2nc3ccccc3n2C1c1ccccc1 (stereo not drawn) | 20.4 µM (inactive) | 7.89 µM (inactive) | 0.258 µM (active) | 23.3 µM (inactive) | 24.7 µM (inactive) | 12.4 µM (inactive) | 14.6 µM (inactive) | 20.9 µM (inactive) |  | 25.2 µM (inactive) | 21.1 µM (inactive) | 14.4 µM (inactive) | 18.8 µM (inactive) |  | 12.1 µM (inactive) | 5.75 µM (inactive) |  | 12.7 µM (inactive) | 54.7 µM (inactive) | 17.9 µM (inactive)
8 | CCOC(=O)C(=[N+]=[N-])C(=O)C1(C(=O)OCC)CCN(C(=O)c2ccccc2)C1=O (stereo not drawn) | > 100 µM (inactive) |  | > 100 µM (inactive) | > 100 µM (inactive) | > 100 µM (inactive) | > 100 µM (inactive) | > 100 µM (inactive) | > 100 µM (inactive) |  | > 100 µM (inactive) | > 100 µM (inactive) |  | > 100 µM (inactive) | > 100 µM (inactive) | > 100 µM (inactive) | > 100 µM (inactive) | > 100 µM (inactive) | > 100 µM (inactive) | > 100 µM (inactive) | 
